# Data from US8829034B2, “Compounds which modulate the CB2 receptor” (Boehringer Ingerlheim International GmbH, priority 2006, dated 2014).
# Target: T1, human CB2R (Homo sapiens, UniProt P34972)
# T1 construct: host or cells: CHO cells
# Test: CB2R mediated modulation of cAMP synthesis
# Format: cell-based
# Details: not given
# Protocol: B. CB2R Mediated Modulation of cAMP Synthesis:
# CHO cells expressing human CB2R (Euroscreen) were plated at a density of 5000 cells per well in 384 well plates and incubated overnight at 37° C. After removing the media, the cells were treated with test compounds diluted in stimulation buffer containing 1 mM IBMX, 0.25% BSA and 10 uM Forskolin. The assay was incubated for 30 minutes at 37° C. Cells were lysed and the cAMP concentration was measured using DiscoverX-XS cAMP kit, following the manufacturer's protocol. In this setting, agonists will decrease forskolin induced production of cAMP while inverse agonists will further increase forskolin induced production of cAMP. EC50 of agonists were calculated as follows. The maximal amount of cAMP produced by forskolin compared to the level of cAMP inhibited by 1 uM CP55940 is defined as 100%. The EC50 value of each test compound was determined as the concentration at which 50% of the forskolin-stimulated cAMP synthesis was inhibited. Data was analyzed using a four-parameter logistic model. (Model 205 of XLfit 4.0).
# T1 sequence (P34972 whole entry): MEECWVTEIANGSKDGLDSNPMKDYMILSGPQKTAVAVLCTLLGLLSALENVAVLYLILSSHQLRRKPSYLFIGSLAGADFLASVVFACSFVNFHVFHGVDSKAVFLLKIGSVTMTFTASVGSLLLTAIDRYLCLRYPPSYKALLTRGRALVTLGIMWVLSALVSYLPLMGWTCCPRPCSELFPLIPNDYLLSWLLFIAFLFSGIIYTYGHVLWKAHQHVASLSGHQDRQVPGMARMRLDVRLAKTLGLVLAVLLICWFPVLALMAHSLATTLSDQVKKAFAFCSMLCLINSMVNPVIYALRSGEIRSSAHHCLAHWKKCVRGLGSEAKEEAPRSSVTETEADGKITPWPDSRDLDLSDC
row,Structure (SMILES),EC50
1,CC(C)(C(=O)Nc1ccc(C(F)(F)F)cn1)S(=O)(=O)C1CCOCC1 [2-Methyl-2-(tetrahydro-pyran-4-sulfonyl)-N-(5-trifluoromethyl-pyridin-2-yl)-propionamide],62.4 nM
2,CC(C)(C(=O)Nc1ccc(C(F)(F)F)cn1)S(=O)(=O)CC1CCOCC1 [2-Methyl-2-(tetrahydro-pyran-4-ylmethanesulfonyl)-N-(5-trifluoromethyl-pyridin-2-yl)-propionamide],72.3 nM
3,CC(C)(C(=O)Nc1nc(-c2ccccc2)cs1)S(=O)(=O)CC1CCOCC1 [2-Methyl-N-(4-phenyl-thiazol-2-yl)-2-(tetrahydro-pyran-4-ylmethanesulfonyl)-propionamide],7.1 nM
4,CCCS(=O)(=O)C(C)(C)C(=O)Nc1nc(-c2ccccc2)c(C)s1 [2-Methyl-N-(5-methyl-4-phenyl-thiazol-2-yl)-2-(propane-1-sulfonyl)-propionamide],52.2 nM
5,Cc1sc(NC(=O)C(C)(C)S(=O)(=O)CC2CCOCC2)nc1-c1ccccc1 [2-Methyl-N-(5-methyl-4-phenyl-thiazol-2-yl)-2-(tetrahydro-pyran-4-ylmethanesulfonyl)-propionamide],2.5 nM
6,"CC(C)(C(=O)Nc1nnc(-c2ccccc2)[nH]1)S(=O)(=O)CC1CCOCC1 [2-Methyl-N-(5-phenyl-4H-1,2,4-triazol-3-yl)-2-(tetrahydro-pyran-4-ylmethanesulfonyl)-propionamide]",1.7 nM
7,"CC(C)(C(=O)Nc1nsc(-c2ccccc2)n1)S(=O)(=O)CC1CCOCC1 [2-Methyl-N-(5-phenyl-[1,2,4]thiadiazol-3-yl)-2-(tetrahydro-pyran-4-ylmethanesulfonyl)-propionamide]",17.6 nM

# Same assay, conditions: found through the use of the above described assays
row,Structure (SMILES),agonistic activity
1,CCCS(=O)(=O)C(C)(C)C(=O)Nc1cnc2ccccc2c1 [2-Methyl-2-(propane-1-sulfonyl)-N-quinolin-3-yl-propionamide],agonistic activity
2,CC(C)S(=O)(=O)C(C)(C)C(=O)Nc1nc(-c2ccncc2)cs1 [2-Methyl-2-(propane-2-sulfonyl)-N-(4-pyridin-4-yl-thiazol-2-yl)-propionamide],agonistic activity
3,CC(C)S(=O)(=O)C(C)(C)C(=O)Nc1cccc(C(F)(F)F)n1 [2-Methyl-2-(propane-2-sulfonyl)-N-(6-trifluoromethyl-pyridin-2-yl)-propionamide],agonistic activity
4,CC(C)(C(=O)Nc1ccc(C(F)(F)F)cn1)S(=O)(=O)CC1CCCO1 (centres unmarked) [2-Methyl-2-(tetrahydro-furan-2-ylmethanesulfonyl)-N-(5-trifluoromethyl-pyridin-2-yl)-propionamide],agonistic activity
5,CC(C)(C(=O)Nc1ccc(C(F)(F)F)cn1)S(=O)(=O)C1CCOCC1 [2-Methyl-2-(tetrahydro-pyran-4-sulfonyl)-N-(5-trifluoromethyl-pyridin-2-yl)-propionamide],agonistic activity
6,CC(C)(C(=O)Nc1cccc(C(F)(F)F)c1)S(=O)(=O)CC1CCOCC1 [2-Methyl-2-(tetrahydro-pyran-4-ylmethanesulfonyl)-N-(3-trifluoromethyl-phenyl)-propionamide],agonistic activity
7,CC(C)(C(=O)Nc1cc(C(F)(F)F)ccn1)S(=O)(=O)CC1CCOCC1 [2-Methyl-2-(tetrahydro-pyran-4-ylmethanesulfonyl)-N-(4-trifluoromethyl-pyridin-2-yl)-propionamide],agonistic activity
8,CC(C)(C(=O)Nc1ccc(C(F)(F)F)cn1)S(=O)(=O)CC1CCOCC1 [2-Methyl-2-(tetrahydro-pyran-4-ylmethanesulfonyl)-N-(5-trifluoromethyl-pyridin-2-yl)-propionamide],agonistic activity
9,CC(C)(C(=O)Nc1cccc(C(F)(F)F)n1)S(=O)(=O)CC1CCOCC1 [2-Methyl-2-(tetrahydro-pyran-4-ylmethanesulfonyl)-N-(6-trifluoromethyl-pyridin-2-yl)-propionamide],agonistic activity
10,CCCS(=O)(=O)C(C)(C)C(=O)Nc1cc(-c2ccccc2)nn1C [2-Methyl-N-(2-methyl-5-phenyl-2H-pyrazol-3-yl)-2-(propane-1-sulfonyl)-propionamide],agonistic activity
11,CC(C)S(=O)(=O)C(C)(C)C(=O)Nc1cc(-c2ccccc2)nn1C [2-Methyl-N-(2-methyl-5-phenyl-2H-pyrazol-3-yl)-2-(propane-2-sulfonyl)-propionamide],agonistic activity
12,Cn1nc(-c2ccccc2)cc1NC(=O)C(C)(C)S(=O)(=O)C1CCOCC1 [2-Methyl-N-(2-methyl-5-phenyl-2H-pyrazol-3-yl)-2-(tetrahydro-pyran-4-sulfonyl)-propionamide],agonistic activity
13,Cn1nc(-c2ccccc2)cc1NC(=O)C(C)(C)S(=O)(=O)CC1CCOCC1 [2-Methyl-N-(2-methyl-5-phenyl-2H-pyrazol-3-yl)-2-(tetrahydro-pyran-4-ylmethanesulfonyl)-propionamide],agonistic activity
14,CCCS(=O)(=O)C(C)(C)C(=O)Nc1cc(-c2cccs2)nn1C [2-Methyl-N-(2-methyl-5-thiophen-2-yl-2H-pyrazol-3-yl)-2-(propane-1-sulfonyl)-propionamide],agonistic activity
15,"CC(C)(C(=O)Nc1nc(-c2ccccc2)ns1)S(=O)(=O)CC1CCOCC1 [2-Methyl-N-(3-phenyl-1,2,4-thiadiazol-5-yl)-2-(tetrahydro-pyran-4-ylmethanesulfonyl)-propionamide]",agonistic activity
16,CC(C)(C(=O)Nc1nc(-c2ccccc2)cs1)S(=O)(=O)CC1CCOCC1 [2-Methyl-N-(4-phenyl-thiazol-2-yl)-2-(tetrahydro-pyran-4-ylmethanesulfonyl)-propionamide],agonistic activity
17,CC(C)(C(=O)Nc1nc(-c2ccncc2)cs1)S(=O)(=O)CC1CCOCC1 [2-Methyl-N-(4-pyridin-4-yl-thiazol-2-yl)-2-(tetrahydro-pyran-4-ylmethanesulfonyl)-propionamide],agonistic activity
18,CCCS(=O)(=O)C(C)(C)C(=O)Nc1nc(-c2ccccc2)c(C)s1 [2-Methyl-N-(5-methyl-4-phenyl-thiazol-2-yl)-2-(propane-1-sulfonyl)-propionamide],agonistic activity
19,Cc1sc(NC(=O)C(C)(C)S(=O)(=O)CC2CCOCC2)nc1-c1ccccc1 [2-Methyl-N-(5-methyl-4-phenyl-thiazol-2-yl)-2-(tetrahydro-pyran-4-ylmethanesulfonyl)-propionamide],agonistic activity
20,Cc1ccc(NC(=O)C(C)(C)S(=O)(=O)CC2CCOCC2)nc1 [2-Methyl-N-(5-methyl-pyridin-2-yl)-2-(tetrahydro-pyran-4-ylmethanesulfonyl)-propionamide],agonistic activity
21,"CC(C)(C(=O)Nc1nnc(-c2ccccc2)[nH]1)S(=O)(=O)CC1CCOCC1 [2-Methyl-N-(5-phenyl-4H-1,2,4-triazol-3-yl)-2-(tetrahydro-pyran-4-ylmethanesulfonyl)-propionamide]",agonistic activity
22,"CC(C)(C(=O)Nc1nsc(-c2ccccc2)n1)S(=O)(=O)CC1CCOCC1 [2-Methyl-N-(5-phenyl-[1,2,4]thiadiazol-3-yl)-2-(tetrahydro-pyran-4-ylmethanesulfonyl)-propionamide]",agonistic activity

# Further lines, results first:
row,agonistic activity,Structure (SMILES)
1,agonistic activity,CCCS(=O)(=O)C(C)(C)C(=O)Nc1ccc2ccccc2n1 [2-Methyl-2-(propane-1-sulfonyl)-N-quinolin-2-yl-propionamide]
2,agonistic activity,"CC(C)S(=O)(=O)C(C)(C)C(=O)Nc1nc2c(s1)CCCC2 [2-Methyl-2-(propane-2-sulfonyl)-N-(4,5,6,7-tetrahydro-benzothiazol-2-yl)-propionamide]"
3,agonistic activity,CC(C)S(=O)(=O)C(C)(C)C(=O)Nc1nc(-c2ccccn2)cs1 [2-Methyl-2-(propane-2-sulfonyl)-N-(4-pyridin-2-yl-thiazol-2-yl)-propionamide]
4,agonistic activity,CC(C)S(=O)(=O)C(C)(C)C(=O)Nc1nc(-c2cccnc2)cs1 [2-Methyl-2-(propane-2-sulfonyl)-N-(4-pyridin-3-yl-thiazol-2-yl)-propionamide]
5,agonistic activity,CC(C)S(=O)(=O)C(C)(C)C(=O)Nc1ccc2ccccc2n1 [2-Methyl-2-(propane-2-sulfonyl)-N-quinolin-2-yl-propionamide]
6,agonistic activity,CC(C)S(=O)(=O)C(C)(C)C(=O)Nc1cnc2ccccc2c1 [2-Methyl-2-(propane-2-sulfonyl)-N-quinolin-3-yl-propionamide]
7,agonistic activity,CC(C)(C(=O)Nc1ccc(C(F)(F)F)cn1)S(=O)(=O)CC1CCCCO1 (centres unmarked) [2-Methyl-2-(tetrahydro-pyran-2-ylmethanesulfonyl)-N-(5-trifluoromethyl-pyridin-2-yl)-propionamide]
8,agonistic activity,CC(C)(C(=O)Nc1ccc(C(F)(F)F)cc1)S(=O)(=O)CC1CCOCC1 [2-Methyl-2-(tetrahydro-pyran-4-ylmethanesulfonyl)-N-(4-trifluoromethyl-phenyl)-propionamide]
9,agonistic activity,CC(C)(C(=O)Nc1nc(C(F)(F)F)cs1)S(=O)(=O)CC1CCOCC1 [2-Methyl-2-(tetrahydro-pyran-4-ylmethanesulfonyl)-N-(4-trifluoromethyl-thiazol-2-yl)-propionamide]
10,agonistic activity,CC(C)S(=O)(=O)C(C)(C)C(=O)Nc1cc(-c2cccs2)nn1C [2-Methyl-N-(2-methyl-5-thiophen-2-yl-2H-pyrazol-3-yl)-2-(propane-2-sulfonyl)-propionamide]
11,agonistic activity,CCCc1cc(NC(=O)C(C)(C)S(=O)(=O)CC2CCOCC2)on1 [2-Methyl-N-(3-propyl-isoxazol-5-yl)-2-(tetrahydro-pyran-4-ylmethanesulfonyl)-propionamide]
12,agonistic activity,CC(C)S(=O)(=O)C(C)(C)C(=O)Nc1nc(-c2ccccc2)cs1 [2-Methyl-N-(4-phenyl-thiazol-2-yl)-2-(propane-2-sulfonyl)-propionamide]
13,agonistic activity,CC(C)(C(=O)Nc1nc(-c2ccccn2)cs1)S(=O)(=O)CC1CCOCC1 [2-Methyl-N-(4-pyridin-2-yl-thiazol-2-yl)-2-(tetrahydro-pyran-4-ylmethanesulfonyl)-propionamide]
14,agonistic activity,CC(C)(C(=O)Nc1nc(-c2cccnc2)cs1)S(=O)(=O)CC1CCOCC1 [2-Methyl-N-(4-pyridin-3-yl-thiazol-2-yl)-2-(tetrahydro-pyran-4-ylmethanesulfonyl)-propionamide]
15,agonistic activity,CCCS(=O)(=O)C(C)(C)C(=O)Nc1ccc(-c2ccccc2)cn1 [2-Methyl-N-(5-phenyl-pyridin-2-yl)-2-(propane-1-sulfonyl)-propionamide]
